According to PubChem BioAssay AID248 (DTP/NCI, 2004):
Inconclusive results and toxic doses are left out. No stated cut-off is given here; in the data, active means T/C of 150% or more; inactive means T/C below 125%.

System: L1210 leukemia ip in BDF1 mice, survival T/C
Assay: NCI In Vivo Anticancer Drug Screen. Data for tumor model L1210 Leukemia (intraperitoneal) in B6D2F1 (BDF1) mice
Details: endpoint: mean survival time, higher = longer survival
Summary of the method: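 Value reflects the ratio of survival in compound-treated mice to survival in vehicle-treated controls, with both groups carrying the same transplanted tumor.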

[1] = dose: 25.0 mg/kg/injection, schedule: Q01DX009 (ip), vehicle: saline with Tween-80
[2] = dose: 50.0 mg/kg/injection, schedule: Q01DX009 (ip), vehicle: saline with Tween-80
[3] = dose: 100.0 mg/kg/injection, schedule: Q01DX009 (ip), vehicle: saline with Tween-80
[4] = dose: 200.0 mg/kg/injection, schedule: Q01DX009 (ip), vehicle: saline with Tween-80
[5] = dose: 100.0 mg/kg/injection, schedule: Q04DX002 (ip), vehicle: Klucel (hydroxypropylcellulose) (HPC)
[6] = dose: 200.0 mg/kg/injection, schedule: Q04DX002 (ip), vehicle: Klucel (hydroxypropylcellulose) (HPC)
[7] = dose: 400.0 mg/kg/injection, schedule: Q04DX002 (ip), vehicle: Klucel (hydroxypropylcellulose) (HPC)
[8] = dose: 100.0 mg/kg/injection, schedule: Q01DX001 (ip), vehicle: saline
[9] = dose: 200.0 mg/kg/injection, schedule: Q01DX001 (ip), vehicle: saline
[10] = dose: 25.0 mg/kg/injection, schedule: Q01DX009 (ip), vehicle: Klucel (hydroxypropylcellulose) (HPC)
[11] = dose: 50.0 mg/kg/injection, schedule: Q01DX009 (ip), vehicle: Klucel (hydroxypropylcellulose) (HPC)
[12] = dose: 100.0 mg/kg/injection, schedule: Q01DX001 (ip), vehicle: saline with Tween-80
[13] = dose: 200.0 mg/kg/injection, schedule: Q01DX001 (ip), vehicle: saline with Tween-80
[14] = dose: 400.0 mg/kg/injection, schedule: Q01DX001 (ip), vehicle: saline with Tween-80
[15] = dose: 400.0 mg/kg/injection, schedule: Q01DX009 (ip), vehicle: saline with Tween-80

Measured: T/C

Cc1cccn2ncnc12
inactive: dose: 50.0 mg/kg/injection, schedule: Q01DX001 (ip), vehicle: alcohol 106 % of control | dose: 100.0 mg/kg/injection, schedule: Q01DX001 (ip), vehicle: alcohol 107 % of control | dose: 200.0 mg/kg/injection, schedule: Q01DX001 (ip), vehicle: alcohol 102 % of control

NC(=O)N/N=C1/CCSc2ccc3c(c21)CCCC3
inactive: dose: 100.0 mg/kg/injection, schedule: Q01DX001 (ip), vehicle: Klucel (hydroxypropylcellulose) (HPC) 102 % of control | dose: 100.0 mg/kg/injection, schedule: Q01DX009 (ip), vehicle: Klucel (hydroxypropylcellulose) (HPC) 106 % of control | dose: 200.0 mg/kg/injection, schedule: Q01DX001 (ip), vehicle: Klucel (hydroxypropylcellulose) (HPC) 93 % of control | dose: 200.0 mg/kg/injection, schedule: Q01DX009 (ip), vehicle: Klucel (hydroxypropylcellulose) (HPC) 104 % of control | dose: 400.0 mg/kg/injection, schedule: Q01DX001 (ip), vehicle: Klucel (hydroxypropylcellulose) (HPC) 94 % of control | dose: 400.0 mg/kg/injection, schedule: Q01DX009 (ip), vehicle: Klucel (hydroxypropylcellulose) (HPC) 101 % of control

CC(C(=O)C(Cc1ccccc1)c1ccccc1)C1CCC2C3C(OC=O)CC4CC(OC=O)CCC4(C)C3CC(OC=O)C12C (configuration not stated)
inactive: dose: 12.5 mg/kg/injection, schedule: Q01DX009 (ip), vehicle: saline with Tween-80 90 % of control | [1] 87 % of control | [2] 90 % of control | [3] 91 % of control | [4] 88 % of control

CCOC(=O)C1OC1(C)C (configuration not stated)
inactive: [5] 88 % of control | [6] 103 % of control | [7] 95 % of control

CC(=O)Nc1ccc(N=C/C=C/c2ccccc2)cc1
inactive: [8] 93 % of control | [9] 94 % of control | dose: 400.0 mg/kg/injection, schedule: Q01DX001 (ip), vehicle: saline 98 % of control

CCCCCCCCCCCCCCCCCCOS(=O)(=O)c1ccc(C)cc1
inactive: dose: 12.5 mg/kg/injection, schedule: Q01DX009 (ip), vehicle: Klucel (hydroxypropylcellulose) (HPC) 98 % of control | [10] 95 % of control | [11] 95 % of control

COc1ccc(C2NC(=O)CCC2[N+](=O)[O-])cc1OC (configuration not stated)
inactive: dose: 100.0 mg/kg/injection, schedule: Q04DX002 (ip), vehicle: saline with Tween-80 91 % of control | dose: 200.0 mg/kg/injection, schedule: Q04DX002 (ip), vehicle: saline with Tween-80 91 % of control | dose: 400.0 mg/kg/injection, schedule: Q04DX002 (ip), vehicle: saline with Tween-80 94 % of control

CN(C)N=Nc1ccc(C#N)cc1
inactive: dose: 50.0 mg/kg/injection, schedule: Q01DX001 (ip), vehicle: saline with Tween-80 105 % of control | [2] 96 % of control | dose: 50.0 mg/kg/injection, schedule: Q04DX003 (ip), vehicle: saline with Tween-80 101 % of control | [12] 106 % of control | [3] 91 % of control | dose: 100.0 mg/kg/injection, schedule: Q04DX003 (ip), vehicle: saline with Tween-80 105 % of control | [13] 118 % of control | [4] 100 % of control | dose: 200.0 mg/kg/injection, schedule: Q04DX003 (ip), vehicle: saline with Tween-80 97 % of control | [14] 122 % of control | [15] 102 % of control | dose: 400.0 mg/kg/injection, schedule: Q04DX003 (ip), vehicle: saline with Tween-80 108 % of control

CN(C)/N=C/c1ccc(N(C)C)cc1
inactive: [10] 100 % of control | dose: 25.0 mg/kg/injection, schedule: Q04DX003 (ip), vehicle: Klucel (hydroxypropylcellulose) (HPC) 101 % of control | [11] 112 % of control | dose: 50.0 mg/kg/injection, schedule: Q04DX003 (ip), vehicle: Klucel (hydroxypropylcellulose) (HPC) 96 % of control | dose: 100.0 mg/kg/injection, schedule: Q04DX003 (ip), vehicle: Klucel (hydroxypropylcellulose) (HPC) 111 % of control

CC(C)OP(=O)(OC=C(Cl)Cl)OC(C)C
inactive: dose: 75.0 mg/kg/injection, schedule: Q01DX001 (ip), vehicle: saline 93 % of control | dose: 150.0 mg/kg/injection, schedule: Q01DX001 (ip), vehicle: saline 91 % of control

O=C1C=Cc2c(ccc3c4c(ccc23)=CC(=O)C=C4)=C1
inactive: [12] 88 % of control | [13] 90 % of control | [14] 90 % of control

COc1cc2c(cc1OC)C1CCc3cc4c(cc3C1N=C2)OCO4 (configuration not stated)
inactive: dose: 80.0 mg/kg/injection, schedule: Q01DX009 (ip), vehicle: saline 96 % of control | dose: 120.0 mg/kg/injection, schedule: Q01DX009 (ip), vehicle: saline 98 % of control | dose: 240.0 mg/kg/injection, schedule: Q01DX009 (ip), vehicle: saline 98 % of control | dose: 400.0 mg/kg/injection, schedule: Q01DX009 (ip), vehicle: saline 91 % of control

Cc1ccc(S(=O)(=O)OCC2C3C=CC(C4C=CC43)C2COS(=O)(=O)c2ccc(C)cc2)cc1 (configuration not stated)
inactive: [5] 94 % of control | [6] 98 % of control | [7] 98 % of control

c1ccc(CN2CCN(Cc3ccccc3)C2c2ccccc2)cc1
inactive: [1] 97 % of control | [2] 103 % of control | [3] 106 % of control | [4] 105 % of control | [15] 106 % of control

CC[N+](C)(C)CCC#N
inactive: dose: 10.0 mg/kg/injection, schedule: Q01DX001 (ip), vehicle: saline 95 % of control | dose: 20.0 mg/kg/injection, schedule: Q01DX001 (ip), vehicle: saline 101 % of control | dose: 40.0 mg/kg/injection, schedule: Q01DX001 (ip), vehicle: saline 101 % of control

CCC(C)(CCC(C)C)c1ccncc1 (configuration not stated)
inactive: [8] 106 % of control | [9] 98 % of control

NNc1c(C(N)=O)c2c(N)ncnc2n1C1OC(CO)C(O)C1O (configuration not stated)
inactive: dose: 100.0 mg/kg/injection, schedule: Q01DX005 (ip), vehicle: saline 96 % of control | dose: 200.0 mg/kg/injection, schedule: Q01DX005 (ip), vehicle: saline 100 % of control

C=CC1CC[N-]CC1.C=CC1CC[N-]CC1.C=CC1CC[N-]CC1.[Cl][Cr]([Cl])[Cl]
inactive: dose: 25.0 mg/kg/injection, schedule: Q01DX009 (ip), vehicle: saline 97 % of control | dose: 50.0 mg/kg/injection, schedule: Q01DX009 (ip), vehicle: saline 94 % of control

Nc1cc(Cl)ccc1Cl
inactive: dose: 100.0 mg/kg/injection, schedule: Q04DX002 (ip), vehicle: gum acacia 91 % of control | dose: 200.0 mg/kg/injection, schedule: Q04DX002 (ip), vehicle: gum acacia 95 % of control | dose: 400.0 mg/kg/injection, schedule: Q04DX002 (ip), vehicle: gum acacia 95 % of control
